# What was measured:
# [1] = molecular target: T1, DCAF15 E3 ubiquitin ligase (UniProt P06709+Q14498+Q66K64); test: Ubiquitin biotinylation MS profiling of molecular glue in HEK293T DCAF15-BirA cells; type: cell-based, human; conditions: A3-HA-Ub, 10 μM, 1 hour, FIG. 11
# T1 construct: expressed in transfected cells
# Description: The protocol used in this experiment is the same as that described in Example 6 above, except that the system was evaluated in a HEK293T cell line lentivirally engineered to express DCAF15-BirA and transiently expressing A3-HA-Ub. While cultured in biotin-free medium, the cells were pre-treated with carfilzomib (carf; 0.4 μM) for 1 hour, and then were either treated or untreated with E7820 (10 μM) for another hour. […] Enrichment of biotinylated species by streptavidin-coated beads, protein digestion, and protein identification and quantification by mass spectrometry were performed exactly as described in Examples 3 and 4. Triplicate samples allowed for statistical analysis of differentially enriched proteins, represented by log 2-fold-change (FC) between the E7820-treated group and the DMSO-treated group on the x-axis, and significance (p-value estimated by limma) on the y-axis in the figures. […] Consistent with the expected action of the E7820 glue in the system, the induced ubiquitinated protein RBM39/CAPERα was detected as the target of the E7820 sulfonamide, based on binding activity or protein degradation.
# CRBN E3 ligase [2] = test: Ubiquitin biotinylation MS profiling of multikinase PROTACs in HEK293T CRBN-/- CRBN-BirA cells; type: cell-based, human; conditions: A3-HA-Ub; PROTAC 1 μM, 45 minutes after carfilzomib; FIGS. 13A-13D
# From the text: In this example, PROTAC® (proteolysis-targeting chimera) molecules that target kinases were created by linking certain kinase degraders with IMiDs analogs. (FIG. 12). PROTAC®s recruit a target protein to be in proximity to an E3 ubiquitin ligase to trigger protein degradation. The ubiquitinated targets of four CRBN-recruiting multi-kinase PROTAC®s were generated to contain the following multikinase degraders: SK-3-91, DB0646, SB1-G-187 and WH-10417-099. These four degraders can collectively induce degradation of a large number of distinct kinases (>125 distinct kinases). FIGS. 13A-13D show the results of a mass spectrometry experiment in which protein substrates susceptible to induced ubiquitination by the abovementioned four multikinase degraders were identified, respectively. These experiments were performed in HEK293T^CRBN−/− cells lentivirally engineered to express CRBN-BirA and transiently expressing A3-HA-Ub. While cultured in biotin-free medium, the cells were pre-treated with carfilzomib (carf; 0.4 μM) for 1 hour, and then were either treated or untreated with the kinase-targeting PROTAC®s (1 μM) for another 45 minutes. […] Enrichment of biotinylated species by streptavidin-coated beads, protein digestion, and protein identification and quantification by mass spectrometry were performed exactly as described in Example 3 and 4. Triplicate samples allowed for statistical analysis of differentially enriched proteins, represented by log 2-fold-change (FC) between the PROTAC®-treated group and the DMSO-treated group on the x-axis, and significance (p-value estimated by limma) on the y-axis in the figures. FIGS. 13A-13D present the induced ubiquitinated substrates for SK-3-91, DB0646, SB1-G-187 and WH-10417-099, respectively, shown and labeled in the upper right quadrant of the plot.
# VHL E3 ligase [3] = molecular target: T2, VHL E3 ligase (UniProt P06709+P40337); test: Ubiquitin biotinylation MS profiling of BET/PTK2 degraders in VHL-BirA cells; type: cell-based, human; conditions: A3-HA-Ub, 1 μM, 1 hour, FIG. 10
# T2 construct: expressed in transfected cells
# T2 sequence (P40337+P06709 fused): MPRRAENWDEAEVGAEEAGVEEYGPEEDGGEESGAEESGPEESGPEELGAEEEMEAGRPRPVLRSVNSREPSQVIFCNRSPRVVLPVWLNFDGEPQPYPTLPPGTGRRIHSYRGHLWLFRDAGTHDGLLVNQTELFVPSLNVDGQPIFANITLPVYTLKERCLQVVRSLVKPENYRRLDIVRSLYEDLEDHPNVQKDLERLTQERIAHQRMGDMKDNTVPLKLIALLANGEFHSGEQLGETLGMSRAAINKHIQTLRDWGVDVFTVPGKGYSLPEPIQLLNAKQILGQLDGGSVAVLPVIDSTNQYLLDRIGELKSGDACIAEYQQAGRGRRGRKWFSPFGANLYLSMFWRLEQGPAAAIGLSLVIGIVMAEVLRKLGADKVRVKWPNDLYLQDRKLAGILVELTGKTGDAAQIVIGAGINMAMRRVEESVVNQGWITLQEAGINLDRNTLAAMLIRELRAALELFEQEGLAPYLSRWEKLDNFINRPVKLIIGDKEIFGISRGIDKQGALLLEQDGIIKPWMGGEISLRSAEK
# T2 sequence (Q15369 whole entry, further chain): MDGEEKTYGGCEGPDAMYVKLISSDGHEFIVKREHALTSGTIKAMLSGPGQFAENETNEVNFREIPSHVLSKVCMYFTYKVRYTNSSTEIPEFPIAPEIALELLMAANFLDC
# T2 sequence (Q15370 whole entry, further chain): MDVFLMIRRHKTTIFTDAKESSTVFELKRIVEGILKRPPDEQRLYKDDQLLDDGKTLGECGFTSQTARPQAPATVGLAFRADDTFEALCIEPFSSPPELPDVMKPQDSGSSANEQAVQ
# Description: (§1) Enrichment of biotinylated species by streptavidin-coated beads, protein digestion, and protein identification and quantification by mass spectrometry were performed exactly as described in Examples 3 and 4. Triplicate samples allowed for statistical analysis of differentially enriched proteins, represented by log 2-fold-change (FC) between the PROTAC®-treated group and the DMSO-treated group on the x-axis, and significance (p-value estimated by limma) on the y-axis in the figures.
# V5-IKZF1 = molecular target: T3, V5-IKZF1 (Homo sapiens, UniProt Q13422+Q96SW2); test: Streptavidin pulldown and Western blot of biotinylated ubiquitinated V5-IKZF1 in 293T CRBN-/- CRBN-BirA cells; type: cell-based
# T3 construct: expressed in transfected cells; host or cells: 293T CRBN-/- cells stably expressing CRBN-BirA; pRK5 vector, transient
# T3 sequence (Q13422 whole entry): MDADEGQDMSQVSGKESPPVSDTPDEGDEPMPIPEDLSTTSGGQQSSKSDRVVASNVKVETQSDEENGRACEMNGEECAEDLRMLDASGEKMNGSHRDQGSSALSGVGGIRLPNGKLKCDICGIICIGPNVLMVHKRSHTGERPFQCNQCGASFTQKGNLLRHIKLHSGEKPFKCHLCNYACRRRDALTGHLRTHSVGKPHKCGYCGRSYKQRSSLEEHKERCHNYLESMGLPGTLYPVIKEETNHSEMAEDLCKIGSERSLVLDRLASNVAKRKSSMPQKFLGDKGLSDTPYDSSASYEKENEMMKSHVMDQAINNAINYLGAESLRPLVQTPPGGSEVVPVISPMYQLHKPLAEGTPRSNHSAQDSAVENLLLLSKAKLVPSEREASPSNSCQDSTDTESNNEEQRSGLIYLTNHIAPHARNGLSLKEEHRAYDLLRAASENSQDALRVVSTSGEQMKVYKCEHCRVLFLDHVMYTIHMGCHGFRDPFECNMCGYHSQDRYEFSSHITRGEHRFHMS
# T3 sequence (Q96SW2 whole entry): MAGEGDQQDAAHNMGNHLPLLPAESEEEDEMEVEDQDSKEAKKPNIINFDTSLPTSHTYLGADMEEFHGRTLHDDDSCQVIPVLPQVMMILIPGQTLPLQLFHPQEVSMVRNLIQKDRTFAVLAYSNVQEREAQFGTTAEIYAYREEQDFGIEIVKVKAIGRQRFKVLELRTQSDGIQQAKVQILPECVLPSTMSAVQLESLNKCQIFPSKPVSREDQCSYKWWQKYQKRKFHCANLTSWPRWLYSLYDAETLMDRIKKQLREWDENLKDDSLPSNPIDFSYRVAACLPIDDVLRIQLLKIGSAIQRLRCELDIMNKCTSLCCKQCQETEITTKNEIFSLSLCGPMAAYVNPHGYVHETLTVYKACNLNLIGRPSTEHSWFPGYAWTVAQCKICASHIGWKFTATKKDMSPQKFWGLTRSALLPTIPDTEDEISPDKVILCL
# Description: One day (approximately 24 hours) after the transfection, DMSO (untreated) or carfilzomib (0.4 μM), (“carf”), was added to the cells for 1 hour.
# A portion of the lysates (referred to as inputs) were saved for Western blotting analyses. […] The eluates were analyzed by SDS-PAGE gel electrophoresis and Western blotting analyses.
# The preparation of cellular lysate was as described above for Cell Lysis, except that the RIPA buffer was supplemented with COMPLETE™ EDTA-free protease inhibitor cocktail (Roche; 04693159001; 1 tablet per 10 ml of buffer), benzonase (Millipore; E1014; 1 μl per 10 ml of buffer), 1.5 mM MgCl2, 1 mM EGTA, and 10 mM NEM (N-ethylmaleimide). For each sample, 1 ml of 3 mg/ml lysate was rotated overnight at 4° C. with 50 μl of resuspended streptavidin Sepharose beads (CYTIVA™; 17511301), which were pre-washed with RIPA lysis buffer 3 times. For all steps that required pelleting of beads, centrifugation was performed at 400×g for 1 minute. On the next day, streptavidin beads were pelleted, and the supernatant (a.k.a. flow-through) was either saved for analysis by Western blotting or was discarded. Streptavidin beads were then washed two times with 1 ml of 2% SDS wash buffer (2% SDS, 25 mM Tris-HCl, pH 7.5), and three times with 0.5-1 ml of 2M urea wash buffer (2M urea, 50 mM Tris-HCl, pH 8). Between each wash, the beads were rotated at room temperature for at least 5 minutes. During the last wash, the beads and the washing buffer were transferred to a new microfuge tube. […] For mass spectrometry-based analysis, the procedures described in On-bead Digestion below were used.
# On the next day, the cells were transfected using pRK5-Avi-HA-ubiquitin or pRK5-A3-HA-ubiquitin in serum-free DMEM.
# BirA [4] = molecular target: T4, BirA (Escherichia coli, UniProt P06709)
# T4 sequence (P06709 whole entry): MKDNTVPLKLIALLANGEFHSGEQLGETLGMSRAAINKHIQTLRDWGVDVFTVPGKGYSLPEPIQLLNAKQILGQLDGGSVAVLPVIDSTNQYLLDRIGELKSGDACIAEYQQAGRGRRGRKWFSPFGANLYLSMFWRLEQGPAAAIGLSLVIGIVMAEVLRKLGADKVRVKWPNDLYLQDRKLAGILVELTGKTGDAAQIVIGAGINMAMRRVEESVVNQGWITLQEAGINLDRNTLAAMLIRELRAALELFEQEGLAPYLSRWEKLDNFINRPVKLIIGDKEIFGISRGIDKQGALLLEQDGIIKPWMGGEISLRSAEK
# BirA [5] = molecular target: T4, BirA; conditions: cited from earlier work
# VHL E3 ligase [6] = molecular target: T2, VHL E3 ligase; test: Ubiquitin biotinylation MS profiling of HDAC degrader in 293T VHL-BirA cells; type: cell-based, human; conditions: A3-HA-Ub, 1 μM, 45 minutes, FIG. 14B
# Description: as §1, with “The experiments involving CRBN E3 ligase were performed in HEK293T^CRBN−/− cells lentivirally engineered to express CRBN-BirA and transiently expressing A3-HA-Ub. The HDAC degrader XY-07-097 was used in the experiments using the CRBN E3 ligase. The experiments involving VHL E3 ligase were performed in HEK293T cells lentivirally engineered to express VHL-BirA and transiently expressing A3-HA-Ub. The HDAC degrader XY-07-187 was used in the experiments using the VHL E3 ligase. […] Enrichment” for “Enrichment”, “Example” for “Examples”
# (§2) Desalted peptides were dried in a vacuum-centrifuged and reconstituted in 0.1% formic acid for LC-MS analysis. Data were collected using a TimsTOF Pro2 (Bruker Daltonics, Bremen, Germany) coupled to a nanoElute LC pump (Bruker Daltonics, Bremen, Germany) via a CaptiveSpray nano-electrospray source. […]
# GSPT1 = GSPT1 degradation by Western blot in HEK293T cells and CRBN-/- derivatives; type: cell-based, human; conditions: carfilzomib 0.4 μM 1 hour before CC-885 1 μM
# Description: However, instead of assessing transiently-expressed V5-tagged IKZF1, an endogenous neo-substrate of CRBN, namely, GSPT1, was assessed. […] Following incubation with the components and added agents, the cells were lysed, and streptavidin-coated beads were used to capture from the cell lysate biotinylated, ubiquitinated proteins, e.g., the endogenous GSPT1 substrate. The biotinylated proteins eluted from the beads were subjected to Western blot analyses.
# CRBN E3 ligase [7] = test: Ubiquitin biotinylation MS profiling of HDAC degrader in 293T CRBN-/- CRBN-BirA cells; type: cell-based, human; conditions: CRBN-BirA, A3-HA-Ub; 1 μM, 45 minutes; FIG. 14A
# Description: as §1, with “The experiments involving CRBN E3 ligase were performed in HEK293T^CRBN−/− cells lentivirally engineered to express CRBN-BirA and transiently expressing A3-HA-Ub. The HDAC degrader XY-07-097 was used in the experiments using the CRBN E3 ligase. The experiments involving VHL E3 ligase were performed in HEK293T cells lentivirally engineered to express VHL-BirA and transiently expressing A3-HA-Ub. The HDAC degrader XY-07-187 was used in the experiments using the VHL E3 ligase. […] Enrichment” for “Enrichment”, “Example” for “Examples”
# as §2
# VHL E3 ligase [8] = molecular target: T2, VHL E3 ligase; test: Ubiquitin biotinylation MS with VHL inhibitor in A375 cells expressing VHL-BirA; type: cell-based, human; conditions: MLN4924 pre-treatment and washout, VH298 30 minutes, FIG. 18
# Description: Experiments were conducted using the methods and systems described herein in conjunction with an inhibitor of an E3 ligase utilized in the experiment. […] The experiments were performed in A375 cells that transiently expressed A3-HA-Ub and VHL-BirA. While cultured in biotin-free medium, the cells were pre-treated with MLN4924 (1 μM) for 2 hours. Thereafter, MLN4924 was washed out of the cell culture with one PBS wash and was replaced with biotin-free medium.
# Next, the cells were lysed and kept on ice to terminate the reaction. Enrichment of biotinylated species by streptavidin-coated beads, protein digestion, and protein identification and quantification by mass spectrometry were performed exactly as described in Examples 3 and 4. The samples were analyzed in triplicate to allow for statistical analysis of differentially enriched proteins, represented by log 2-fold-change between the VH298-treated E3 ligase group and the wild-type E3 ligase group on the y-axis, and significance (p-value estimated by limma) on the x-axis in the figures. […] A decrease in biotinylation owing to the inhibitor treatment was observed. Consistent with the expected actions of VHL, HIF1A was identified as a substrate.
# CRBN E3 ligase [9] = test: Ubiquitin biotinylation MS profiling of BET/PTK2 degraders in CRBN-BirA cells; type: cell-based, human; conditions: A3-HA-Ub, 1 μM, 1 hour, FIG. 10
# Description: as §1
# PTK2 = PTK2 (Homo sapiens, UniProt Q05397); conditions: cited from earlier work
# Chain of PTK2 (Q05397 whole entry): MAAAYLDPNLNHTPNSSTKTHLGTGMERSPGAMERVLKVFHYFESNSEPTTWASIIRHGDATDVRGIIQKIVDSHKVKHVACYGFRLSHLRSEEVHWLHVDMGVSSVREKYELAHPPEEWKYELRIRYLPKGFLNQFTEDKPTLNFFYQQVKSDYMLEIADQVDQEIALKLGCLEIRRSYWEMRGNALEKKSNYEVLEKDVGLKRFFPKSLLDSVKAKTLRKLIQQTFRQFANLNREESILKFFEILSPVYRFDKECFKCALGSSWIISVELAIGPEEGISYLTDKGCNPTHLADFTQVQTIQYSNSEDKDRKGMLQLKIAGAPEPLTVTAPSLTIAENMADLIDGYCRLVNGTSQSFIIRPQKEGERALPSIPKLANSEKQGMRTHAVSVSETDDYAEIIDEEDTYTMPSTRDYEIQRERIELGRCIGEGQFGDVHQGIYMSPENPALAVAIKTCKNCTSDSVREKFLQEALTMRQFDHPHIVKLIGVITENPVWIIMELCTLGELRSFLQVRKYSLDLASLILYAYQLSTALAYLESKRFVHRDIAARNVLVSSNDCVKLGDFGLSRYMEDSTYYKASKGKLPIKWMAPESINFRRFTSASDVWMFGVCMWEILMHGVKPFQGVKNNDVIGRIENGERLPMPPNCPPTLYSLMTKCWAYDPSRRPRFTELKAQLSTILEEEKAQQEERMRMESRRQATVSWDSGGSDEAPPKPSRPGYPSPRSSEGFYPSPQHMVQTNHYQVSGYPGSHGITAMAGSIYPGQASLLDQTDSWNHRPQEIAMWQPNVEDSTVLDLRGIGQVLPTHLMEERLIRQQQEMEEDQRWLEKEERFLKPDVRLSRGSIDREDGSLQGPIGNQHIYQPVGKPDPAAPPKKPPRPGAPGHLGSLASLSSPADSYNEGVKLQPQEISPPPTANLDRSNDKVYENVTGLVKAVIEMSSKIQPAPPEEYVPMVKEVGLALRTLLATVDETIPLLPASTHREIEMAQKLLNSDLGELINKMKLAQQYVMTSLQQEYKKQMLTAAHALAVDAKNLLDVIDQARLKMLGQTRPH
# BET bromodomains = conditions: degrader of BET bromodomains; cited from earlier work
compound,measurement,setting,value
Cc1ccc(NS(=O)(=O)c2cccc(C#N)c2)c2[nH]cc(C#N)c12 [E7820],Induced ubiquitinated substrate versus DMSO,[1],RBM39/CAPERα
CC(C)S(=O)(=O)c1ccccc1Nc1nc(Nc2ccc(N3CCN(CCOCCNC(=O)CNc4cccc5c4C(=O)N(C4CCC(=O)NC4=O)C5=O)CC3)cc2)ncc1Cl (centres unmarked) [SK-3-91],Induced ubiquitinated proteins versus DMSO,CRBN E3 ligase [2],the majority of the induced ubiquitinated proteins detected were kinase targets
COc1cc(C(=O)NCCOCCOCCOCC(=O)N[C@H](C(=O)N2C[C@H](O)C[C@H]2C(=O)NCc2ccc(-c3scnc3C)cc2)C(C)(C)C)ccc1Nc1ncc(C(F)(F)F)c(Oc2cccc3c2C(=O)CC3)n1 [BI-0319],Induced ubiquitinated substrates versus DMSO,VHL E3 ligase [3],PTK2
Nc1cccc2c1C(=O)N(C1CCC(=O)NC1=O)C2=O (centres unmarked) [pomalidomide],Induced ubiquitination of IKZF1 by E3 ligase CRBN,V5-IKZF1,showed pomalidomide-induced ubiquitination of IKZF1
same,Mono- and poly-ubiquitinated V5-IKZF1 captured by streptavidin beads,V5-IKZF1,increased amount
same,Ubiquitinated V5-IKZF1 captured by streptavidin beads compared with DMSO,V5-IKZF1,approximately 3.9 fold
Cc1ccc(C(=O)Nc2ccc(CN3CCN(CCCOCCOCCOCCNC(=O)COc4cccc5c4C(=O)N(C4CCC(=O)NC4=O)C5=O)CC3)c(C(F)(F)F)c2)cc1C#Cc1cnc2cccnn12 (centres unmarked) [SB1-G-187],Induced ubiquitinated proteins versus DMSO,CRBN E3 ligase [2],the majority of the induced ubiquitinated proteins detected were kinase targets
GLNDIFEAQKIE [A3-Tag],Increase in Km relative to Avi-Tag,BirA [4],~14 fold
same,Km,BirA [5],345 µM
Cc1ccc(NC(=O)c2cccc(C(F)(F)F)c2)cc1N1Cc2cnc(Nc3ccc(N4CCN(Cc5cn(CCCCCOc6cccc7c6C(=O)N(C6CCC(=O)NC6=O)C7=O)nn5)CC4)nc3)nc2N(C)C1=O (centres unmarked) [DB0646],Induced ubiquitinated proteins versus DMSO,CRBN E3 ligase [2],the majority of the induced ubiquitinated proteins detected were kinase targets
Cc1ncsc1-c1ccc(CNC(=O)[C@@H]2C[C@@H](O)CN2C(=O)C(NC(=O)C2(F)CC2)C(C)(C)C)c(OCCCCCN(CCc2c[nH]c3ccccc23)Cc2ccc(/C=C/C(=O)NO)cc2)c1 (some centres unmarked) [XY-07-187],Induced ubiquitinated HDAC substrates versus DMSO,VHL E3 ligase [6],"HDAC1, HDAC2, HDAC6, and HDAC8"
CC(C)C[C@H](NC(=O)[C@H](CCc1ccccc1)NC(=O)CN1CCOCC1)C(=O)N[C@@H](Cc1ccccc1)C(=O)N[C@@H](CC(C)C)C(=O)[C@@]1(C)CO1 [carfilzomib],Rescue of CC-885-induced GSPT1 degradation,GSPT1,partially rescued
O=C(/C=C/c1ccc(CN(CCCCCNc2cccc3c2C(=O)N(C2CCC(=O)NC2=O)C3=O)CCc2c[nH]c3ccccc23)cc1)NO (centres unmarked) [XY-07-097],Induced ubiquitinated HDAC substrates versus DMSO,CRBN E3 ligase [7],"HDAC2, HDAC6, and HDAC8"
Cc1ncsc1-c1ccc(CNC(=O)[C@@H]2C[C@@H](O)CN2C(=O)[C@@H](NC(=O)C2(C#N)CC2)C(C)(C)C)cc1 [VH298],VHL substrate revealed by decrease in biotinylation owing to the inhibitor treatment,VHL E3 ligase [8],HIF1A
COc1cc(C(=O)NCCOCCOCCOCCC(=O)Nc2cccc3c2C(=O)N(C2CCC(=O)NC2=O)C3=O)ccc1Nc1ncc(C(F)(F)F)c(Oc2cccc3c2C(=O)CC3)n1 (centres unmarked) [BI-3663],Induced ubiquitinated substrates versus DMSO,CRBN E3 ligase [9],PTK2
same,IC50,PTK2,18 nM
Cc1ncsc1-c1ccc([C@H](C)NC(=O)[C@@H]2C[C@@H](O)CN2C(=O)[C@@H](NC(=O)COCCCOCCNC(=O)C[C@@H]2N=C(c3ccc(Cl)cc3)c3c(sc(C)c3C)-n3c(C)nnc32)C(C)(C)C)cc1 [ARV-771],Induced ubiquitinated substrates versus DMSO,VHL E3 ligase [3],"BRD2, BRD3, BRD4"
GLNDIFEAQKIEWHE [Avi-Tag],Km,BirA [5],25 µM
Cc1sc2c(c1C)C(c1ccc(Cl)cc1)=N[C@@H](CC(=O)NCCCCCCCCNC(=O)COc1cccc3c1C(=O)N(C1CCC(=O)NC1=O)C3=O)c1nnc(C)n1-2 (some centres unmarked) [dBET6],Induced ubiquitinated substrates versus DMSO,CRBN E3 ligase [9],"BRD2, BRD3, BRD4"
same,IC50,BET bromodomains,~10 nM

# Reference: patent US20250084453A1, “SYSTEMS, COMPOSITIONS AND METHODS FOR IDENTIFYING E3 LIGASE SUBSTRATES BY UBIQUITIN BIOTINYLATION” (The Broad Institute, Inc., priority 2022, published 2025)
